Reference: the RepoRT retention time repository (doi:10.1016/j.foodchem.2018.11.056)

test: RP, Thermo Scientific Hypersil GOLD aQ, 100 × 2.1 mm, 1.9 µm, 30 °C, 0.3 mL/min, estimated dead time 0.73 min; A: water + 0.1% formic acid; B: methanol + 0.1% formic acid + 4 mM ammonium formate; gradient (min/%B) 0/0 1/0 8/100 10/100; conditions: stereoisomer not certain

| Structure (SMILES) | LC retention time [min] |
| --- | --- |
| O=c1cc(CO)occ1O | 2.6 |
| COc1cc2c(c3oc(=O)c4c(c13)CCOC4=O)C1C=COC1O2 (stereo not given) | 5.89 |
| COc1c(C)c2c(c(O)c1CC=C(C)CCC(=O)O)C(=O)OC2 | 6.77 |
| O=C1C=C2C(=CCOC2O)O1 (stereo not given) | 2.12 |
| CC1=CC2OC3C(O)C(O)C(C)(C2(CO)CC1OC(=O)CC(C)C)C31CO1 (stereo not given) | 6.17 |
| CC1CCCC(=O)CCCCCc2cc(O)cc(O)c2C(=O)O1 (stereo not given) | 7.1 |
| CN1C(=O)C23CC4=CC=CC(O)C4N2C(=O)C1(CO)SS3 (stereo not given) | 5.48 |
| CC1Cc2ccc(C(=O)NC(Cc3ccccc3)C(=O)O)c(O)c2C(=O)O1 (stereo not given) | 6.78 |
| C=C1C2OC3C=C(C)C(=O)C(O)C3(CO)C1(C)CC2O (stereo not given) | 4.77 |
| CC1CCCC(O)CCCCCc2cc(O)cc(O)c2C(=O)O1 (stereo not given) | 6.88 |
| CC1=CC2OC3C(O)C(O)C(C)(C2(CO)CC1O)C31CO1 (stereo not given) | 3.76 |
| CCCCC(C)C(OC(=O)CC(CC(=O)O)C(=O)O)C(CC(C)CCCCCCC(O)CC(O)C(C)N)OC(=O)CC(CC(=O)O)C(=O)O (stereo not given) | 7.19 |
| CC(=O)OCC12C(C=C(C)C(=O)C1O)OC1C(O)CC2(C)C12CO2 (stereo not given) | 5.25 |
| C=CC(C)(C)C12CC3C(=O)NC(=Cc4cnc[nH]4)C(=O)N3C1Nc1ccccc12 (stereo not given) | 6.61 |
| COc1cc(=O)oc(C=CC=CC=CC(C)=CC2(C)OC(C)C(C)(O)C2O)c1C (stereo not given) | 7.23 |
| COc1cc2c(c3oc(=O)c4c(c13)CCC4=O)C1C=COC1O2 (stereo not given) | 6.26 |
| COc1cc2c(c3oc(=O)c4c(c13)CCOC4=O)C1CCOC1O2 (stereo not given) | 5.8 |
| Cc1cc(O)cc2oc(=O)c3c(O)cc(O)cc3c12 | 6.89 |
| CC1=C2C(=COC(C)C2C)C(=O)C(C(=O)O)=C1O (stereo not given) | 6.53 |
| CC(C)CC1C(=O)N2CCCC2C2(O)OC(C)(NC(=O)C3C=C4c5cccc6[nH]cc(c56)CC4N(C)C3)C(=O)N12 (stereo not given) | 6.11 |
| COc1cc2c(c3oc(=O)c4c(c13)CCC4=O)C1CCOC1O2 (stereo not given) | 6.11 |
| CC1=CC2c3cccc4[nH]cc(c34)CC2N(C)C1 (stereo not given) | 5.35 |
| COc1ccc2c3c4n(c2c1)C(C=C(C)C)OOC(C)(C)CC4N1C(=O)C2CCCN2C(=O)C1(O)C3O (stereo not given) | 7.33 |

| Structure (SMILES) | LC retention time [min] |
| --- | --- |
| CC(=O)OC1C(O)C2OC3C=C(C)C(=O)C(O)C3(CO)C1(C)C21CO1 (stereo not given) | 4.69 |
| CC(C)CC1NC(=O)C(C)N(C)C(=O)CNC(=O)C(=Cc2ccccc2)N(C)C1=O (stereo not given) | 6.66 |
| CC(=O)OCC12CC(OC(=O)CC(C)C)C(C)=CC1OC1C(O)C(OC(C)=O)C2(C)C12CO2 (stereo not given) | 6.78 |
| CC1CCC2C(C)(C)C(O)CCC2(C)C12Cc1c(O)cc3c(c1O2)CNC3=O (stereo not given) | 7.51 |
| COc1cc2c(c3oc4cccc(O)c4c(=O)c13)C1C=COC1O2 (stereo not given) | 7.49 |
| CC(C)C1(NC(=O)C2C=C3c4cccc5[nH]cc(c45)CC3N(C)C2)OC2(O)C3CCCN3C(=O)C(Cc3ccccc3)N2C1=O (stereo not given) | 6.55 |
| CCCCC(C)C(OC(=O)CC(CC(=O)O)C(=O)O)C(CC(C)CC(O)CCCCC(O)CC(O)C(C)N)OC(=O)CC(CC(=O)O)C(=O)O (stereo not given) | 6.81 |
| C=CC(C)(C)C12C=C(O)C(=O)N3C(=Cc4cnc[nH]4)C(=O)NC31N(OC)c1ccccc12 (stereo not given) | 6.11 |
| CC1=CC2OC3C(O)C(O)C(C)(C34CO4)C2(CO)C(O)C1=O (stereo not given) | 3.7 |
| CC(=O)OCC12CC(OC(=O)CC(C)C)C(C)=CC1OC1C(O)C(O)C2(C)C12CO2 (stereo not given) | 6.52 |
| CC1=CC2OC3C(O)CC(C)(C34CO4)C2(CO)C(O)C1=O (stereo not given) | 4.26 |
| CC(C)(O)C1OC2CCC3(C)C(O)(CCC4Cc5c([nH]c6ccccc56)C43C)C2=CC1=O (stereo not given) | 7.81 |
| CCCCC(C)C(OC(=O)CC(CC(=O)O)C(=O)O)C(CC(C)CC(O)CCCCCCC(O)C(C)N)OC(=O)CC(CC(=O)O)C(=O)O (stereo not given) | 6.99 |
| COCC1OC(=O)c2coc3c2C1(C)C1=C(C3=O)C2CCC(=O)C2(C)CC1OC(C)=O (stereo not given) | 6.14 |
| CC(=O)OC1CC2(C)C3(CO3)C1OC1C=C(C)C(=O)C(O)C12CO (stereo not given) | 5.49 |
| COC1C(OC(=O)C=CC=CC=CC=CC(=O)O)CCC2(CO2)C1C1(C)OC1CC=C(C)C (stereo not given) | 7.52 |
| COc1cc2c(c3oc(=O)c4c(c13)CCC4=O)C1(O)C=COC1O2 (stereo not given) | 5.77 |
| CC(C)C1(NC(=O)C2CC3c4cccc5[nH]cc(c45)CC3N(C)C2)OC2(O)C3CCCN3C(=O)C(Cc3ccccc3)N2C1=O (stereo not given) | 6.46 |
| CC1=CC2OC3C(OC4OC(CO)C(O)C(O)C4O)CC(C)(C34CO4)C2(CO)C(O)C1=O (stereo not given) | 4.29 |
| CC1CCCC(=O)CCCC=Cc2cc(O)cc(O)c2C(=O)O1 (stereo not given) | 7.16 |
| CC(=O)OCC12CC(O)C(C)=CC1OC1C(O)C(OC(C)=O)C2(C)C12CO2 (stereo not given) | 4.9 |
| CC(C)CC1C(=O)N2CCCC2C2(O)OC(NC(=O)C3C=C4c5cccc6[nH]cc(c56)CC4N(C)C3)(C(C)C)C(=O)N12 (stereo not given) | 6.5 |
